Data on 23 molecules can be found in patent US20250312352A1, “GLP-1R MODULATING COMPOUNDS” (Gilead Sciences, Inc., priority 2021, published 2025).

For the assay, the target named is T1, GLP-1R (Homo sapiens, UniProt P43220).
T1 construct: host or cells: CHO cells
T1 sequence (P43220 24-463): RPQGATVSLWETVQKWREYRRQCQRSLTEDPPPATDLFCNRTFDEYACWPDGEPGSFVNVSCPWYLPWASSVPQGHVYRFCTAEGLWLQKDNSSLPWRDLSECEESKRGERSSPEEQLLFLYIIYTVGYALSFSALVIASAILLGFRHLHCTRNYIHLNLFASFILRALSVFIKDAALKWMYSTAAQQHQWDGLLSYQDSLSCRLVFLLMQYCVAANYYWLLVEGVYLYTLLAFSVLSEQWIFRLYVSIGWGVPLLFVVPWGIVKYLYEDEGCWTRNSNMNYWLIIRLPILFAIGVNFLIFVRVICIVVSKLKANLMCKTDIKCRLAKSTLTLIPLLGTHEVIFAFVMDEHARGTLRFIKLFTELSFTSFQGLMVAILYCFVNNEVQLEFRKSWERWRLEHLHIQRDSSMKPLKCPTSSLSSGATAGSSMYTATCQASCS
As to the kind of experiment: GLP-1R activation cAMP assay (Assay 1 or Assay 2). It is filed as cell-based. As to conditions: cAMP increase in CHO cells stably expressing GLP-1R; compounds run on one of the two cAMP assays. An outline of the steps:
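EC50 values come from a sigmoidal fit of HTRF-detected cAMP rise versus log agonist concentration. GLP-1R-expressing CHO cells, equilibrated 1 h at 37 °C in HBSS with HEPES and BSA, received a 10-point compound dose series for 30 min before detection.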
In general terms: Cyclic AMP is a second messenger, typically raised through Gs and lowered through Gi signalling.
The EC50 is the concentration that produces a half-maximal response. As for `O=C(O)c1ccc2nc(Cc3cc(F)c(-c4cccc(OCc5cc(C(F)(F)F)ns5)n4)cc3F)n(C[C@@H]3CCO3)c2c1` [Example 81, (S)-2-(2,5-difluoro-4-(6-((3-(trifluoromethyl)isothiazol-5-yl)methoxy)pyridin-2-yl)benzyl)-1-(oxetan-2-ylmethyl)-1H-benzo[d]imidazole-6-carboxylic acid], a half-maximal response (EC50) required 0.81 nM.

For `CC1(C#Cc2cnc(COc3cccc(-c4cc(F)c(Cc5nc6c(F)cc(C(=O)O)cc6n5C[C@@H]5CCO5)cc4F)n3)c(Cl)c2)CC1` [Example 379, (S)-2-(4-(6-((3-chloro-5-((1-methylcyclopropyl)ethynyl)pyridin-2-yl)methoxy)pyridin-2-yl)-2,5-difluorobenzyl)-4-fluoro-1-(oxetan-2-ylmethyl)-1H-benzo[d]imidazole-6-carboxylic acid], a half-maximal effect (EC50) was put at 0.303 nM.

For the molecule `O=C(O)c1ccc2nc(Cc3cc(F)c(-c4cccc(OCc5cc(C(F)(F)F)sn5)n4)cc3F)n(C[C@@H]3CCO3)c2c1` [Example 13, (S)-2-(2,5-difluoro-4-(6-((5-(trifluoromethyl)isothiazol-3-yl)methoxy)pyridin-2-yl)benzyl)-1-(oxetan-2-ylmethyl)-1H-benzo[d]imidazole-6-carboxylic acid], the EC50 is 0.54 nM.

Molecule `Cc1cc(Cc2nc3c(F)cc(C(=O)O)cc3n2[C@@H]2COCC2(C)C)c(Cl)cc1-c1ccc(F)c(OCc2ncc(C(C)(F)F)s2)n1` [Example 426, (S)-2-(2-chloro-4-(6-((5-(1,1-difluoroethyl)thiazol-2-yl)methoxy)-5-fluoropyridin-2-yl)-5-methylbenzyl)-1-(4,4-dimethyltetrahydrofuran-3-yl)-4-fluoro-1H-benzo[d]imidazole-6-carboxylic acid] registered an EC50 of 0.931 nM.

In the case of `O=C(O)c1ccc2nc(Cc3cc(F)c(-c4cccc(OCc5cc(F)c(Br)s5)n4)cc3F)n(C[C@@H]3CCO3)c2c1` [Example 51, (S)-2-(4-(6-((5-bromo-4-fluorothiophen-2-yl)methoxy)pyridin-2-yl)-2,5-difluorobenzyl)-1-(oxetan-2-ylmethyl)-1H-benzo[d]imidazole-6-carboxylic acid], the EC50 was found to be 0.21 nM.

`CC(C)(C#N)C#Cc1cnc(COc2cccc(-c3cc(F)c(Cc4nc5ccc(C(=O)O)cc5n4C[C@@H]4CCO4)cc3F)n2)s1` [Example 328, (S)-2-(4-(6-((5-(3-cyano-3-methylbut-1-yn-1-yl)thiazol-2-yl)methoxy)pyridin-2-yl)-2,5-difluorobenzyl)-1-(oxetan-2-ylmethyl)-1H-benzo[d]imidazole-6-carboxylic acid] gave an EC50 of 0.342 nM.

As to `O=C(O)c1ccc2nc(Cc3cc(F)c(-c4cccc(OCc5nccs5)n4)cc3F)n(C[C@@H]3CCO3)c2c1` [Example 11, (S)-2-(2,5-difluoro-4-(6-(thiazol-2-ylmethoxy)pyridin-2-yl)benzyl)-1-(oxetan-2-ylmethyl)-1H-benzo[d]imidazole-6-carboxylic acid], the EC50 is 0.6 nM.

For the molecule `COc1nnc(COc2cc(-c3cc(F)c(Cc4nc5c(F)cc(C(=O)O)cc5n4C[C@@H]4CCO4)cc3F)ccc2F)s1` [Example 389, (S)-4-fluoro-1-(oxetan-2-ylmethyl)-2-((2,4′,5-trifluoro-3′-((5-methoxy-1,3,4-thiadiazol-2-yl)methoxy)-[1,1′-biphenyl]-4-yl)methyl)-1H-benzo[d]imidazole-6-carboxylic acid], the EC50 is 0.257 nM.

Take `COCCn1c(Cc2cc(F)c(-c3cccc(OCc4ccc(C#CC5COC5)cc4F)n3)cc2F)nc2ccc(C(=O)O)cc21` [Example 231, 2-[[2,5-difluoro-4-[6-[[2-fluoro-4-[2-(oxetan-3-yl)ethynyl]phenyl]methoxy]-2-pyridyl]phenyl]methyl]-3-(2-methoxyethyl)benzimidazole-5-carboxylic acid]: a half-maximal effect (EC50) was put at 1.51 nM.

Consider `O=C(O)c1cc(F)c2nc(Cc3cc(F)c(-c4ccc(F)c(OCc5ncc(C(F)F)s5)n4)cc3F)n(C[C@@H]3CCO3)c2c1` [Example 407, (S)-2-(4-(6-((5-(difluoromethyl)thiazol-2-yl)methoxy)-5-fluoropyridin-2-yl)-2,5-difluorobenzyl)-4-fluoro-1-(oxetan-2-ylmethyl)-1H-benzo[d]imidazole-6-carboxylic acid], for which a half-maximal effect (EC50) was put at 0.239 nM.

On to `Cn1cc(C#Cc2ccc(COc3cccc(-c4cc(F)c(Cc5nc6ccc(C(=O)O)cc6n5C[C@@H]5CCO5)cc4F)n3)s2)cn1` [Example 112, (S)-2-(2,5-difluoro-4-(6-((5-((1-methyl-1H-pyrazol-4-yl)ethynyl)thiophen-2-yl)methoxy)pyridin-2-yl)benzyl)-1-(oxetan-2-ylmethyl)-1H-benzo[d]imidazole-6-carboxylic acid], for which the response was half-maximal at 0.13 nM (EC50).

The molecule `COCCn1c(Cc2cc(F)c(-c3cccc(OCc4ccc(-c5cnn(C6CCNCC6)c5)nc4)n3)cc2F)nc2ccc(C(=O)O)cc21` [Example 229, 2-(2,5-difluoro-4-(6-((6-(1-(piperidin-4-yl)-1H-pyrazol-4-yl)pyridin-3-yl)methoxy)pyridin-2-yl)benzyl)-1-(2-methoxyethyl)-1H-benzo[d]imidazole-6-carboxylic acid] showed an EC50 of 17.9 nM.

Regarding `O=C(O)c1ccc2nc(Cc3cc(F)c(-c4cccc(OCc5cc6n(n5)CCOC6)n4)cc3F)n(C[C@@H]3CCO3)c2c1` [Example 7, (S)-2-(4-(6-((6,7-dihydro-4H-pyrazolo[5,1-c][1,4]oxazin-2-yl)methoxy)pyridin-2-yl)-2,5-difluorobenzyl)-1-(oxetan-2-ylmethyl)-1H-benzo[d]imidazole-6-carboxylic acid], the EC50 was 3.71 nM.

As to `Cc1cc(Cc2nc3c(F)cc(C(=O)O)cc3n2C[C@@H]2CCO2)c(F)cc1-c1cccc(OCc2cnc(-c3cnn(C4CC4)c3)cc2Cl)n1` [Example 163, (S)-2-(4-(6-((4-chloro-6-(1-cyclopropyl-1H-pyrazol-4-yl)pyridin-3-yl)methoxy)pyridin-2-yl)-2-fluoro-5-methylbenzyl)-4-fluoro-1-(oxetan-2-ylmethyl)-1H-benzo[d]imidazole-6-carboxylic acid], the EC50 stood at 0.7 nM.

Regarding `Cn1nc(COc2cccc(-c3cc(F)c(Cc4nc5ccc(C(=O)O)cc5n4C[C@@H]4CCO4)cc3F)n2)cc1Cl` [Example 38, (S)-2-(4-(6-((5-chloro-1-methyl-1H-pyrazol-3-yl)methoxy)pyridin-2-yl)-2,5-difluorobenzyl)-1-(oxetan-2-ylmethyl)-1H-benzo[d]imidazole-6-carboxylic acid], the EC50 is 0.6 nM.

In turn, `O=C(O)c1ccc2nc(Cc3cc(F)c(-c4cccc(OCc5cc6n(n5)CC(F)(F)C6)n4)cc3F)n(C[C@@H]3CCO3)c2c1` [Example 74, (S)-2-(4-(6-((5,5-difluoro-5,6-dihydro-4H-pyrrolo[1,2-b]pyrazol-2-yl)methoxy)pyridin-2-yl)-2,5-difluorobenzyl)-1-(oxetan-2-ylmethyl)-1H-benzo[d]imidazole-6-carboxylic acid] had an EC50 of 0.25 nM.

As for `COc1ncc(C#Cc2ccc(COc3cccc(-c4cc(F)c(Cc5nc6ccc(C(=O)O)cc6n5C[C@@H]5CCO5)cc4F)n3)c(F)n2)s1` [Example 277, (S)-2-(2,5-difluoro-4-(6-((2-fluoro-6-((2-methoxythiazol-5-yl)ethynyl)pyridin-3-yl)methoxy)pyridin-2-yl)benzyl)-1-(oxetan-2-ylmethyl)-1H-benzo[d]imidazole-6-carboxylic acid], the response was half-maximal at 0.312 nM (EC50).

Turning to `Cn1cc(CNC(=O)c2cc(Cl)c(COc3cccc(-c4cc(F)c(Cc5nc6ccc(C(=O)O)cc6n5C[C@@H]5CCO5)cc4F)n3)cn2)cn1` [Example 193, (S)-2-(4-(6-((4-chloro-6-(((1-methyl-1H-pyrazol-4-yl)methyl)carbamoyl)pyridin-3-yl)methoxy)pyridin-2-yl)-2,5-difluorobenzyl)-1-(oxetan-2-ylmethyl)-1H-benzo[d]imidazole-6-carboxylic acid], a half-maximal response (EC50) required 0.22 nM.

`Cn1ccnc1C#Cc1ccc(COc2cccc(-c3cc(F)c(Cc4nc5ccc(C(=O)O)cc5n4C[C@@H]4CCO4)cc3F)n2)c(F)c1` [Example 148, (S)-2-(2,5-difluoro-4-(6-((2-fluoro-4-((1-methyl-1H-imidazol-2-yl)ethynyl)benzyl)oxy)pyridin-2-yl)benzyl)-1-(oxetan-2-ylmethyl)-1H-benzo[d]imidazole-6-carboxylic acid] gave an EC50 of 0.51 nM.

With `CNC(=O)c1cc(Cl)c(COc2cccc(-c3cc(F)c(Cc4nc5ccc(C(=O)O)cc5n4CC4(CF)CC4)c(F)c3F)n2)cn1` [Example 450, 2-(4-(6-((4-chloro-6-(methylcarbamoyl)pyridin-3-yl)methoxy)pyridin-2-yl)-2,3,6-trifluorobenzyl)-1-((1-(fluoromethyl)cyclopropyl)methyl)-1H-benzo[d]imidazole-6-carboxylic acid], it took 0.05 nM to reach a half-maximal effect (EC50).

As to `COc1cc(COc2cccc(-c3cc(F)c(Cc4nc5ccc(C(=O)O)cc5n4C[C@@H]4CCO4)cc3F)n2)nn1C` [Example 68, (S)-2-(2,5-difluoro-4-(6-((5-methoxy-1-methyl-1H-pyrazol-3-yl)methoxy)pyridin-2-yl)benzyl)-1-(oxetan-2-ylmethyl)-1H-benzo[d]imidazole-6-carboxylic acid], it took 5.37 nM to reach a half-maximal effect (EC50).

Molecule `CC1(COc2nnc(COc3cccc(-c4cc(F)c(Cc5nc6ccc(C(=O)O)cc6n5C[C@@H]5CCO5)cc4F)n3)s2)CC1` [Example 343, (S)-2-(2,5-difluoro-4-(6-((5-((1-methylcyclopropyl)methoxy)-1,3,4-thiadiazol-2-yl)methoxy)pyridin-2-yl)benzyl)-1-(oxetan-2-ylmethyl)-1H-benzo[d]imidazole-6-carboxylic acid] yielded an EC50 of 0.459 nM.

As to `CNC(=O)c1cc(Cl)c(COc2cccc(-c3cc(F)c(Cc4nc5c(F)cc(C(=O)O)cc5n4C[C@@H](C)OC)cc3F)n2)cn1` [Example 393, (R)-2-(4-(6-((4-chloro-6-(methylcarbamoyl)pyridin-3-yl)methoxy)pyridin-2-yl)-2,5-difluorobenzyl)-4-fluoro-1-(2-methoxypropyl)-1H-benzo[d]imidazole-6-carboxylic acid], the EC50 was determined as 0.777 nM.
